The values that follow come from patent US9896522B2, “Solid phase fluorescence labeling reagents and uses thereof” (The Texas A&M University System, priority 2010, dated 2018).

For data set [1] the following is noted: buffer, pH 2; cited from earlier work.
The nature of data set [2]: UV absorbance spectra and molar absorbance. The data set is classed as physicochemical. The method, then:
UV absorbance spectra were recorded using a Beckman 168 photodiode detector during the HILIC separations. The eluent compositions at the time of detection were 26 mM NH4HCO2 74% ACN/water for APTS, 24 mM NH4HCO2 76% ACN/water for trisulfonamide 22 and 10 mM MOPS with 5 mM NaOH in 76% ACN/water for 33. Fluorescence spectra at different pH values were recorded on a Shimadzu RF-5301PC spectrofluorometer. The buffers used are tabulated below: UV absorbance and fluorescence spectra for the quantum yield determinations were acquired using a Varian 100 Bio UV-Vis spectrophotometer and a Varian Cary Eclipse fluorescence spectrometer, respectively. The samples were dissolved in a pH 9 0.1M aqueous sodium bicarbonate buffer.

Data set [3] can be described thus: fluorescence emission spectra at different pH values. The data set is classed as physicochemical. As to conditions: fluorescence emission spectrum. The method, then: It was also developed to have pH-independent fluorescence properties which are important for CE applications. […] The molar absorbance and relative quantum yield values were also determined using Rhodamine 6G as a standard. UV absorbance spectra were recorded using a Beckman 168 photodiode detector during the HILIC separations. The eluent compositions at the time of detection were 26 mM NH4HCO2 74% ACN/water for APTS, 24 mM NH4HCO2 76% ACN/water for trisulfonamide 22 and 10 mM MOPS with 5 mM NaOH in 76% ACN/water for 33. Fluorescence spectra at different pH values were recorded on a Shimadzu RF-5301PC spectrofluorometer.

With `CCCCCCCCCCCC1(C)OCC(COCCCS(=O)(=O)[O-])O1.[Na+]` (stereo not shown) [ALS], the half life in data set [1] is 8 min.

Consider `Nc1cc(S(=O)(=O)O)c2ccc3c(S(=O)(=O)O)cc(S(=O)(=O)O)c4ccc1c2c43` [APTS, 8-Aminopyrene-1,3,6-trisulfonic acid, reference compound], for which the “share of the maximum absorbance that can be used at 488 nm” value in data set [2] (excitation at 488 nm) is “about 4%”.

For the compound `CN(CCS(=O)(=O)O)S(=O)(=O)c1cc(N)c2ccc3c(S(=O)(=O)N(C)CCS(=O)(=O)O)cc(S(=O)(=O)N(C)CCS(=O)(=O)O)c4ccc1c2c34` [compound 22], in data set [2] (relative to APTS), the “shift of λmax ex towards longer wavelength” value is on record as 44 nm. Besides, the λmax em in data set [3] is given as 540 nm.
